Measurements: ChEMBL document CHEMBL6078680, “Improving the Stability and Anti-Infective Activity of Sea Turtle AMPs Using Multiple Structural Modification Strategies” (J Med Chem, 2024)
Activity calls are given as the source filed them. The calls are words filed in the database; no cut-off is given here. Positions of bridges follow the written chain, without caps; N, C: chain ends. Non-standard residues stand in square brackets, D forms with d. Residues, ends and D or L forms follow the SMILES beside them. Orn = NCCC[C@H](N)C(=O)O

Experiments:
[1] = test system: Enterococcus faecium; assay: Antimicrobial activity against Enterococcus faecium 34 assessed as reduction in microbial growth incubated for 18 hrs by broth microdilution method; assay type: functional
[2] = test system: Escherichia coli; assay: Antimicrobial activity against Escherichia coli CMCC44102 assessed as reduction in microbial growth incubated for 18 hrs by broth microdilution method; assay type: functional
[3] = test system: Peritoneal macrophage; assay: Cytotoxicity against mouse Peritoneal macrophage cells assessed as survival rate at 100 microg/ml; assay type: functional; details: read-out: Survival
[4] = test system: HaCaT; assay: Cytotoxicity against human HaCaT cells assessed as survival rate at 100 microg/ml; assay type: functional; details: read-out: Survival
[5] = biological target: T1, Trypsin (Homo sapiens, UniProt P07477+P07478+P35030); assay: Stability of compound assessed as trypsin (unknown origin) mediated drug degradation […] measured at 6 hrs by RP-HPLC analysis; assay type: ADME, protein assay; details: read-out: Activity
[6] = test system: Staphylococcus aureus; assay: Antimicrobial activity against Staphylococcus aureus CMCC 26003 at 5 times MIC measured at 180 mins; assay type: functional, organism-based
[7] = test system: Acinetobacter baumannii; assay: Drug resistance, ratio of MIC for Acinetobacter baumannii ATCC1960 after 40 passages to MIC for Acinetobacter baumannii ATCC1960 during first exposure; assay type: functional
[8] = test system: Staphylococcus aureus; assay: Antibiofilm activity against Staphylococcus aureus CMCC 26003 assessed as biofilm eradication incubated for 24 hrs by crystal violet staining based analysis; assay type: functional, organism-based
[9] = test system: Acinetobacter baumannii; assay: Antibiofilm activity against Acinetobacter baumannii ATCC 19606 assessed as inhibition of biofilm formation at 4 to 8 times MIC incubated for 48 hrs by crystal violet staining based analysis; assay type: functional
[10] = test system: Cell membrane; assay: Disruption of cell membrane integrity in Staphylococcus aureus CMCC 26003 assessed as cell membrane damage at 5 times MIC measured after 30 mins by scanning electron microscopic analysis; assay type: subcellular
[11] = test system: Cell membrane; assay: Induction of […] membrane permeabilization in Escherichia coli ATCC 25922 at 5 times MIC measured for 1 hr by NPN-dye based fluorescence analysis; assay type: subcellular
[12] = test system: Escherichia coli; assay: Antimicrobial activity against Escherichia coli ATCC 25922 assessed as fold increase in MIC incubated for 18 hrs in presence of LPS; assay type: functional
[13] = test system: Acinetobacter baumannii; assay: Antimicrobial activity against Acinetobacter baumannii ATCC 19606 assessed as fold increase in MIC incubated for 18 hrs in presence of LPS; assay type: functional
[14] = test system: Escherichia coli; assay: Antimicrobial activity against Escherichia coli ATCC 25922 assessed as fold increase in MIC incubated for 18 hrs in presence of phosphatidylglycerol; assay type: functional
[15] = test system: Acinetobacter baumannii; assay: Antimicrobial activity against Acinetobacter baumannii ATCC 19606 assessed as fold increase in MIC incubated for 18 hrs in presence of phosphatidylglycerol; assay type: functional
[16] = test system: Escherichia coli; assay: Antimicrobial activity against Escherichia coli ATCC 25922 assessed as fold increase in MIC incubated for 18 hrs in presence of cardiolipin; assay type: functional
[17] = test system: Acinetobacter baumannii; assay: Antimicrobial activity against Acinetobacter baumannii ATCC 19606 assessed as fold increase in MIC incubated for 18 hrs in presence of cardiolipin; assay type: functional
[18] = Acute toxicity in BALB/c mouse assessed as mortality at 50 mg/kg, iv measured for 24 hrs; assay type: organism-based; details: in vivo, read-out: Activity
[19] = test system: Acinetobacter baumannii; assay: In vivo antibacterial activity against Acinetobacter baumannii ATCC19606 infected in BALB/c mouse assessed as survival at 15 mg/kg, ip administered for 12 hrs and measured on day 7; assay type: functional; details: ATCC19606, 168 h, time 7 day
[20] = test system: Acinetobacter baumannii; assay: In vivo antibacterial activity against Acinetobacter baumannii ATCC19606 infected in BALB/c mouse assessed as survival at 15 mg/kg, ip administered for 12 hrs and measured after 3 hrs; assay type: functional; details: time 15 hrs
[21] = test system: Acinetobacter baumannii; assay: In vivo antibacterial activity against Acinetobacter baumannii ATCC19606 infected in BALB/c mouse assessed as reduction in bacterial load at 15 mg/kg, ip; assay type: functional, organism-based; details: time 3.0 hrs
[22] = test system: Acinetobacter baumannii; assay: In vivo antibacterial activity against Acinetobacter baumannii ATCC19606 infected in BALB/c mouse assessed as reduction in bacterial load in liver at 15 mg/kg, ip measured after 3 hrs; assay type: functional, organism-based
[23] = biological target: T1, Trypsin; assay: Stability of compound assessed as trypsin (unknown origin) mediated drug degradation […] measured at 24 hrs by RP-HPLC analysis; assay type: ADME, protein assay; details: read-out: Activity
[24] = test system: RAW264.7; assay: Cytotoxicity against mouse RAW264.7 cells upto 200 microg/ml by MTT assay; assay type: toxicity, cell-based; details: dose < 200 µg/ml
[25] = test system: Acinetobacter baumannii; assay: Antipersister-activity against Acinetobacter baumannii ATCC 19606 assessed as elimination of persister cells at 4 times MIC preincubated adherent persistent cells with colistin incubation for 24 hrs; assay type: functional
[26] = test system: Cell membrane; assay: Induction of cell membrane permeabilization in Escherichia coli ATCC 25922 by propidium iodide dye-based fluorescence assay; assay type: subcellular
[27] = test system: Cell membrane; assay: Induction of cell membrane permeabilization in Escherichia coli ATCC 25922 at 2 times MIC measured for 1 hr by propidium iodide dye-based fluorescence assay; assay type: subcellular
[28] = test system: Cell membrane; assay: Induction of cell membrane permeabilization in Staphylococcus aureus CMCC 26003 at 5 times MIC measured for 1 hr by propidium iodide dye-based fluorescence assay; assay type: subcellular
[29] = test system: Cell membrane; assay: Induction of outer membrane permeabilization in Escherichia coli ATCC 25922 at 5 times MIC measured for 1 hr by NPN-dye based fluorescence analysis; assay type: subcellular
[30] = test system: Escherichia coli; assay: Antibacterial activity against Escherichia coli ATCC 25922 at 1 times MIC in presence of 25 microg/ml exogenous DNA; assay type: functional, organism-based
[31] = test system: Acinetobacter baumannii; assay: In vivo antibacterial activity against Acinetobacter baumannii ATCC19606 infected in BALB/c mouse assessed as reduction in bacterial load in abdominal cavity at 15 mg/kg, ip measured after 12 hrs; assay type: functional, organism-based

Compound | MIC [1] [µg/mL] | MIC [2] [µg/mL] | Activity [6] | Ratio [7] | Activity [8] | Activity [10] | fold change (FC) [12] | fold change (FC) [13] | mortality at 24 h [18] [%] | survival at 15 mg/kg [19] [%] | Activity [20] [%] | Activity [21] | Activity [22] | other results
CC[C@H](C)[C@H](NC(=O)[C@H](CCCNC(=N)N)NC(=O)[C@H](CO)NC(=O)[C@@H]1CSSC[C@H](N)C(=O)N[C@@H](Cc2ccccc2)C(=O)N[C@@H](CCCCN)C(=O)N[C@@H](CCCCN)C(=O)N[C@@H](C(C)C)C(=O)N[C@@H](CCCNC(=N)N)C(=O)N[C@@H](CCCCN)C(=O)N[C@@H](CCC(N)=O)C(=O)N[C@@H](CC(C)C)C(=O)NCC(=O)N[C@@H](CCCNC(=N)N)C(=O)N[C@@H](C(C)C)C(=O)N[C@@H](CC(C)C)C(=O)N[C@@H](CCCNC(=N)N)C(=O)N[C@@H](Cc2c[nH]cn2)C(=O)N1)C(=O)N[C@H](C(=O)N[C@H](C(=O)NCC(=O)NCC(=O)N[C@@H](CCCNC(=N)N)C(=O)N[C@@H](CCSC)C(=O)N[C@@H](CCCNC(=N)N)C(=O)N[C@@H](Cc1ccccc1)C(=O)O)C(C)C)[C@@H](C)O (H-CFKKVRKQLGRVLRHCSRITVGGRMRF-OH; disulfide 1-16) | 9.38 | 4.69 | inactive | 1 | Active | Active | 4 | 4 | 50 | 40 | >60 | Time-dependent-effect | Active | viability at 100 µg/mL [3]: > 80%; viability at 100 µg/mL [4]: > 80%; metabolised at 6 h [5]: 68%; inhibition (INH) [9]: 80%; Activity [11]: Active; fold change (FC) [14]: 16; fold change (FC) [15]: 16; fold change (FC) [16]: 8; fold change (FC) [17]: 8
CC[C@H](C)[C@H](NC(=O)[C@H](CCCN)NC(=O)[C@H](CO)NC(=O)[C@H](Cc1c[nH]cn1)NC(=O)[C@H](CCCN)NC(=O)[C@H](CC(C)C)NC(=O)[C@@H](NC(=O)[C@H](CCCN)NC(=O)CNC(=O)[C@H](CC(C)C)NC(=O)[C@H](CCC(N)=O)NC(=O)[C@H](CCCN)NC(=O)[C@H](CCCN)NC(=O)[C@@H](NC(=O)[C@H](CCCN)NC(=O)[C@H](CCCN)NC(=O)[C@@H](N)Cc1ccccc1)C(C)C)C(C)C)C(=O)N[C@H](C(=O)N[C@H](C(=O)NCC(=O)NCC(=O)N[C@@H](CCCN)C(=O)N[C@@H](CCSC)C(=O)N[C@@H](CCCN)C(=O)N[C@@H](Cc1ccccc1)C(=O)O)C(C)C)[C@@H](C)O (H-F[Orn][Orn]V[Orn][Orn]QLG[Orn]VL[Orn]HS[Orn]ITVGG[Orn]M[Orn]F-OH) | 9.38 | 18.8 | inactive | 1 | Active | Active | 16 | 16 | 0 | 40 | >60 | Time-dependent-effect | Active | metabolised at 24 h [23]: < 60%; Activity [24]: Non-toxic; Activity [25]: 74.5%; Activity [26]: Dose-dependent-effect; Activity [27]: > 90%; Activity [28]: 24.6%; Activity [29]: 100%; Activity [30]: inactive; Activity [31]: Active
